Experimental data as given in ChEMBL document CHEMBL5316347, “Design, Synthesis, and Biological Evaluation of Bipyridazine Derivatives as Stimulator of Interferon Genes (STING) Receptor Agonists” (J Med Chem, 2023).
One block for each compound: values may come before it.

Columns and labels:
[1] = target: Stimulator of interferon genes protein (Homo sapiens, UniProt Q86WV6); experiment: Agonist activity at human STING in human THP1-Blue ISG cells incubated for 24 hrs in presence of PMA by luciferase reporter assay; format: cell-based
[2] = test system: Stimulator of interferon genes protein (Homo sapiens), Q86WV6 [UNDEFINED MUTATION]; conditions: dose 50.0 µM
[3] = target: T1, Stimulator of interferon genes protein (Mus musculus, UniProt Q3TBT3); experiment: Agonist activity at mouse 6His-tagged recombinant STING CTD (144 to 378 residues) expressed in Escherichia coli BL21 (DE3) incubated for 10 mins by FRET assay
T1 sequence (Q3TBT3 whole entry): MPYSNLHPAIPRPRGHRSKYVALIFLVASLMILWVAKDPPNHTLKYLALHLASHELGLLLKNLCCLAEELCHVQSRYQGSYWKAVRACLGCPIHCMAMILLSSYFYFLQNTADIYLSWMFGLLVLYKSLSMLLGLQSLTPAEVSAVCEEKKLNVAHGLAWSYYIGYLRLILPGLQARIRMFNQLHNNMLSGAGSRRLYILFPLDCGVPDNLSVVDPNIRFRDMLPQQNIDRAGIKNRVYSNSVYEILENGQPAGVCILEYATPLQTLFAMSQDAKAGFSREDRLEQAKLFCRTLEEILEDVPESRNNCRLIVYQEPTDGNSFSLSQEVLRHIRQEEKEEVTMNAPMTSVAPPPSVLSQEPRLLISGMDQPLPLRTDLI

[4] = target: T1, Stimulator of interferon genes protein; experiment: Agonist activity at mouse STING in mouse RAW-Lucia ISG cells incubated for 24 hrs in presence of PMA by luciferase reporter assay; format: cell-based
[5] = target: T1, Stimulator of interferon genes protein; experiment: Agonist activity at mouse STING in STING knockout mouse RAW-Lucia ISG cells incubated for 24 hrs in presence of PMA by luciferase reporter assay; format: cell-based
THP-1 = experiment: Cytotoxicity against human THP-1 cells assessed as inhibition of cell growth upto 40 uM measured after 24 hrs in presence of PMA by CellTiter-Glo viability assay; format: toxicity, cell-based; conditions: thp-1, 24 h
[6] = Half life in C57BL/6 mouse at 10 mg/kg, iv qd measured upto 24 hrs by LC-MS/MS analysis; format: ADME, organism-based; conditions: in vivo
[7] = AUC(0 to t) in C57BL/6 mouse at 10 mg/kg, iv qd measured upto 24 hrs by LC-MS/MS analysis; format: ADME, organism-based; design: dose 10 mg/kg, time < 24 hrs, route iv; conditions: in vivo
[8] = AUC(0 to infinity) in C57BL/6 mouse at 10 mg/kg, iv qd measured upto 24 hrs by LC-MS/MS analysis; format: ADME, organism-based; design: time < 24 hrs, dose 10 mg/kg, route iv; conditions: in vivo
[9] = Clearance in C57BL/6 mouse at 10 mg/kg, iv qd measured upto 24 hrs by LC-MS/MS analysis; format: ADME, organism-based; conditions: in vivo
[10] = MRT(0 to infinity) in C57BL/6 mouse at 10 mg/kg, iv qd measured upto 24 hrs by LC-MS/MS analysis; format: ADME, organism-based; conditions: in vivo
[11] = Volume of distribution at steady state in C57BL/6 mouse at 10 mg/kg, iv qd measured upto 24 hrs by LC-MS/MS analysis; format: ADME, organism-based; conditions: in vivo, read-out: Vdss
[12] = Toxicity in C57BL/6 mouse implanted with mouse B16-F10 cells assessed as body weight loss at 10 mg/kg, […] measured for 14 days; format: organism-based; conditions: in vivo, 336 h, time 14 day

Sequence of Stimulator of interferon genes protein (Homo sapiens, UniProt Q86WV6) (Q86WV6 whole entry): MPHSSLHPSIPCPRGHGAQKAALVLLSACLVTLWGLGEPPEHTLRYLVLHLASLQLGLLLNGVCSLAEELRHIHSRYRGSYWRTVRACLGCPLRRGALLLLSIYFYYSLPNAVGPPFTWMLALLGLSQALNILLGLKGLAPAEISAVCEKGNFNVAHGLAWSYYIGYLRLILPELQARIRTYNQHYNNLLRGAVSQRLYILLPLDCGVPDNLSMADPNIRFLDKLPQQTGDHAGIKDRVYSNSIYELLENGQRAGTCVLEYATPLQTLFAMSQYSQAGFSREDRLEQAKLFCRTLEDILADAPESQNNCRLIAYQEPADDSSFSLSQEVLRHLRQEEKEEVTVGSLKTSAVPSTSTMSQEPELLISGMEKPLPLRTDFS
Sequence of Stimulator of interferon genes protein (Homo sapiens), Q86WV6 [UNDEFINED MUTATION] (Q86WV6 whole entry, looked up, stated change not applied, the tested form may be a part): as the sequence (Q86WV6 whole entry) above

- EC50 [1]: 32.3 µM
- ΔTm [2]: 0 °C
Structure (SMILES): O=C(Nc1cc(F)c(F)cc1C(=O)O)c1ccc(-c2cncnc2)nn1

- EC50 [1]: 11.5 µM
- ΔTm ([2]; filed as agonist): 1.5 °C
Structure (SMILES): O=C(Nc1cc(F)c(F)cc1C(=O)O)c1ccc(-n2cncn2)nn1

- IC50 [3]: 1.9 µM
- EC50 [4]: 42 µM
- EC50 [5]: > 200 µM
Structure (SMILES): O=C(Nc1cc(Br)c(F)cc1C(=O)O)c1ccc(-c2ccnnc2)nn1
- Activity (THP-1): Non-Toxic

- EC50 [1]: 17.6 µM
- ΔTm ([2]; filed as agonist): 3.5 °C
Structure (SMILES): O=C(Nc1cc(F)c(F)cc1C(=O)O)c1ccc(-c2cnsc2)nn1

- EC50 [1]: 20.6 µM
- ΔTm ([2]; filed as agonist): 0 °C
Structure (SMILES): Cn1cc(-c2ccc(C(=O)Nc3cc(F)c(F)cc3C(=O)O)nn2)cn1

- IC50 [3]: 0.93 µM
- EC50 [4]: 35.3 µM
- EC50 [5]: > 200 µM
Structure (SMILES): O=C(Nc1cc(Cl)c(F)cc1C(=O)O)c1ccc(-c2ccnnc2)nn1
- Activity (THP-1): Non-Toxic

- IC50 [3]: 0.96 µM
- EC50 [4]: 12.9 µM
- EC50 [5]: > 200 µM
- half-life [6]: 2.1 h
- AUC(0-t) at 24 h [7]: 4390 ng·h/mL
- AUC(0-inf) [8]: 4410 ng·h/mL
- clearance [9]: 37.8 mL/min/kg
- MRT inf [10]: 1.06 h
- Vd [11]: 2.39 L/kg
Structure (SMILES): C#Cc1cc(NC(=O)c2ccc(-c3ccnnc3)nn2)c(C(=O)O)cc1F
- Activity (THP-1): Non-Toxic
- Activity [12]: Non-Toxic

- EC50 [1]: 22.3 µM
- ΔTm ([2]; filed as agonist): 1 °C
Structure (SMILES): O=C(Nc1cc(F)c(F)cc1C(=O)O)c1ccc(Nc2cn[nH]c2)nn1

Second part, the compound before the results:

Structure (SMILES): O=C(Nc1cc(F)c(F)cc1C(=O)O)c1ccc(N2CCCC2)nn1
- EC50 [1]: > 100 µM
- ΔTm ([2]; filed as agonist): -1 °C

Structure (SMILES): COc1cc(NC(=O)c2ccc(-c3ccnnc3)nn2)c(C(=O)O)cc1OC
- EC50 [1]: 21.3 µM
- ΔTm ([2]; filed as agonist): 0.5 °C

Structure (SMILES): O=C(Nc1ccc(Br)cc1C(=O)O)c1ccc(-c2ccnnc2)nn1
- EC50 [1]: 4.5 µM
- ΔTm ([2]; filed as agonist): 3.5 °C

Structure (SMILES): COc1ccc(C(=O)O)c(NC(=O)c2ccc(-c3ccnnc3)nn2)c1
- EC50 [1]: 5.96 µM
- ΔTm ([2]; filed as agonist): 1.5 °C

Structure (SMILES): CCCn1c(NC(=O)c2cc(C)nn2CC)nc2cc(C(N)=O)cc(OC3COC3)c21
- IC50 [3]: 4.35 µM
- EC50 [4]: 5.22 µM
- EC50 [5]: > 200 µM
- Activity (THP-1): Toxic
- half-life [6]: 1.13 h
- AUC(0-t) at 24 h [7]: 3820 ng·h/mL
- AUC(0-inf) [8]: 3830 ng·h/mL
- clearance [9]: 43.8 mL/min/kg
- MRT inf [10]: 0.894 h
- Vd [11]: 2.38 L/kg

Structure (SMILES): O=C(Nc1cc(Br)ccc1C(=O)O)c1ccc(-c2ccnnc2)nn1
- EC50 [4]: > 200 µM
- EC50 [5]: > 200 µM
- Activity (THP-1): Non-Toxic
